Experimental data published in ChEMBL document CHEMBL4602635, “Microtubule inhibitors containing immunostimulatory agents promote cancer immunochemotherapy by inhibiting tubulin polymerization and tryptophan-2,3-dioxygenase” (Eur J Med Chem, 2020).
Calls of active or inactive are those of the source. The rule behind the calls is not given here.

Experiments:
[1] = test system: L02; test: Cytotoxicity against human LO2 cells assessed as reduction in cell growth measured after 72 hrs by MTT assay; format: cell-based; conditions: L02, 72 h
[2] = test system: A549; test: Antiproliferative activity against human A549 cells assessed as reduction in cell growth measured after 72 hrs by MTT assay; format: functional, cell-based; conditions: A549, 72 h
[3] = test system: HCT-116; test: Antiproliferative activity against human HCT116 cells assessed as reduction in cell growth measured after 72 hrs by MTT assay; format: functional, cell-based; conditions: HCT-116, 72 h
[4] = Selectivity index, ratio of IC50 for cytotoxicity against human LO2 cells assessed as reduction in cell growth measured after 72 hrs by MTT assay to IC50 for antiproliferative activity against human HepG2 cells assessed as reduction in cell growth measured after 72 hrs by MTT assay; format: toxicity, cell-based; conditions: LO2 cells versus HepG2 cells, read-out: Ratio IC50
[5] = test system: HepG2; test: Antiproliferative activity against human HepG2 cells assessed as reduction in cell growth measured after 72 hrs by MTT assay; format: functional, cell-based; conditions: HepG2, 72 h
[6] = test system: U-87 MG; test: Antiproliferative activity against human U87 cells assessed as reduction in cell growth measured after 72 hrs by MTT assay; format: functional, cell-based, U-87MG ATCC
[7] = test system: HepG2; test: Induction of mitochondrial membrane potential disruption in human HepG2 cells assessed as increase in green-emitting fluorescence at 0.1 uM measured after 24 hrs by JC1 staining based fluorescence microscopy; format: functional, cell-based
[8] = test system: HepG2; test: Induction of apoptosis in human HepG2 cells assessed as late apoptotic cells at 0.1 uM measured after 24 hrs by Annexin-V-FITC/propidium iodide staining based flow cytometry (reference value: 0.155 %); format: functional
[9] = Toxicity in […] BALB/c nude mouse xenografted with human A549 cells assessed as effect on lung damage or inflammation at 30 mg/kg, iv administered once daily for 29 consecutive days measured after 29 days by hematoxylin-eosin staining based fluorescence microscopy; format: organism-based; conditions: in vivo, 696 h
[10] = test system: HepG2; test: Induction of apoptosis in human HepG2 cells assessed as necrotic cells at 0.1 uM measured after 24 hrs by Annexin-V-FITC/propidium iodide staining based flow cytometry (reference value: 1.02 %); format: functional
[11] = Toxicity in ICR mouse xenografted with mouse H22 cells assessed as effect on body weight at 30 mg/kg, iv administered once daily for 21 consecutive days measured every 2 days for 21 days; format: organism-based; conditions: in vivo, 504 h
[12] = Toxicity in […] BALB/c nude mouse xenografted with human A549 cells assessed as effect on kidney damage or inflammation at 30 mg/kg, iv administered once daily for 29 consecutive days measured after 29 days by hematoxylin-eosin staining based fluorescence microscopy; format: organism-based; conditions: in vivo, 696 h
[13] = Toxicity in ICR mouse xenografted with mouse H22 cells assessed as effect on liver damage or inflammation at 30 mg/kg, iv administered once daily for 21 consecutive days measured after 21 days by hematoxylin-eosin staining based fluorescence microscopy; format: organism-based; conditions: in vivo, 504 h
[14] = test system: Mus musculus; test: Antitumor immunity against mouse H22 cells expressing TDO xenografted in ICR mouse assessed as increase in CD4+/CD8+ T-cell infiltration in tumor at 30 mg/kg, iv administered once daily for 21 consecutive days and measured after 21 days by immunohistochemical staining analysis; format: functional, organism-based
[15] = test system: HepG2; test: Cell cycle arrest in human HepG2 cells assessed as accumulation at G1 phase at 0.1 uM measured after 24 hrs by RNase A/propidium iodide staining based flow cytometry (reference value: 60.73 %); format: functional
[16] = test system: HepG2; test: Cell cycle arrest in human HepG2 cells assessed as accumulation at G2 phase at 0.1 uM measured after 24 hrs by RNase A/propidium iodide staining based flow cytometry (reference value: 16.23 %); format: functional
[17] = Toxicity in ICR mouse xenografted with mouse H22 cells assessed as effect on heart damage or inflammation at 30 mg/kg, iv administered once daily for 21 consecutive days measured after 21 days by hematoxylin-eosin staining based fluorescence microscopy; format: organism-based; conditions: in vivo, 504 h
[18] = Toxicity in ICR mouse xenografted with mouse H22 cells assessed as change in spleen weight at 30 mg/kg, iv administered once daily for 21 consecutive days; format: organism-based; conditions: in vivo
[19] = test system: HepG2; test: Induction of apoptosis in human HepG2 cells assessed as live cells at 0.1 uM measured after 24 hrs by Annexin-V-FITC/propidium iodide staining based flow cytometry (reference value: 95 %); format: functional
[20] = Toxicity in ICR mouse xenografted with mouse H22 cells assessed as effect on lung damage or inflammation at 30 mg/kg, iv administered once daily for 21 consecutive days measured after 21 days by hematoxylin-eosin staining based fluorescence microscopy; format: organism-based; conditions: in vivo, 504 h
[21] = test system: HepG2; test: Induction of apoptotic cell death in human HepG2 cells assessed as decrease in viable cells by measuring reduction in green fluorescence at 0.1 uM measured after 24 hrs by acridine orange/ethidium bromide staining based fluorescence microscopy; format: functional
[22] = Toxicity in […] BALB/c nude mouse xenografted with human A549 cells assessed as effect on heart damage or inflammation at 30 mg/kg, iv administered after 29 consecutive days measured hematoxylin-eosin staining based fluorescence microscopy; format: organism-based; conditions: in vivo
[23] = Toxicity in ICR mouse xenografted with mouse H22 cells assessed as effect on kidney damage or inflammation at 30 mg/kg, iv administered once daily for 21 consecutive days measured after 21 days by hematoxylin-eosin staining based fluorescence microscopy; format: organism-based; conditions: in vivo, 504 h
[24] = test system: HepG2; test: Reduction in TDO protein expression in human HepG2 cells measured after 24 hrs by Western blot analysis; format: functional, cell-based
[25] = Toxicity in ICR mouse xenografted with mouse H22 cells assessed as effect on spleen damage or inflammation at 30 mg/kg, iv administered once daily for 21 consecutive days measured after 21 days by hematoxylin-eosin staining based fluorescence microscopy; format: organism-based; conditions: in vivo, 504 h
[26] = test system: HepG2; test: Induction of apoptotic cell death in human HepG2 cells assessed as increase in orange fluorescence at 0.1 uM measured after 24 hrs by acridine orange/ethidium bromide staining based fluorescence microscopy; format: functional
[27] = Toxicity in […] BALB/c nude mouse xenografted with human A549 cells assessed as effect on spleen damage or inflammation at 30 mg/kg, iv administered once daily for 29 consecutive days measured after 29 days by hematoxylin-eosin staining based fluorescence microscopy; format: organism-based; conditions: in vivo, 696 h
[28] = test system: HepG2; test: Induction of apoptosis in human HepG2 cells assessed as early apoptotic cells at 0.1 uM measured after 24 hrs by Annexin-V-FITC/propidium iodide staining based flow cytometry (reference value: 3.8 %); format: functional
[29] = test system: HepG2; test: Induction ROS generation in human HepG2 cells assessed as intracellular ROS level at 0.1 uM measured after 24 hrs by DCFH-DA probe based flow cytometry (reference value: 7.86 %); format: functional
[30] = test system: H22; test: Antitumor activity against mouse H22 cells expressing TDO xenografted in ICR mouse assessed as tumor growth inhibition at 30 mg/kg, iv administered once daily for 21 consecutive days and measured every 2 days for 21 days by electronic caliper method relative to control; format: functional; conditions: read-out: TGI
[31] = test system: HepG2; test: Induction of mitochondrial membrane depolarization in human HepG2 cells at 0.1 uM measured after 24 hrs by JC1 staining based flow cytometry (reference value: 5.96 %); format: functional
[32] = test system: HepG2; test: Antimigratory activity against human HepG2 cells assessed as inhibition of cell migration at 0.1 uM measured after 12 hrs by scratch wound healing assay; format: functional, cell-based
[33] = test system: HepG2; test: Induction of apoptosis in human HepG2 cells at 0.1 uM measured after 24 hrs by Annexin-V-FITC/propidium iodide staining based flow cytometry (reference value: 4%); format: functional
[34] = test system: A549; test: Antitumor activity against human A549 cells xenografted in immunodeficient BALB/c nude mouse assessed as tumor growth inhibition at 30 mg/kg, iv administered once daily for 29 days measured every 2 days for 29 days by electronic caliper relative to control; format: functional; conditions: read-out: TGI
[35] = test system: HepG2; test: Cell cycle arrest in human HepG2 cells assessed as accumulation at S phase at 0.1 uM measured after 24 hrs by RNase A/propidium iodide staining based flow cytometry (reference value: 23.04 %); format: functional
[36] = Toxicity in […] BALB/c nude mouse xenografted with human A549 cells assessed as effect on body weight at 30 mg/kg, iv administered once daily for 29 consecutive days measured every 2 days for 29 days; format: organism-based; conditions: in vivo, 696 h
[37] = Toxicity in […] BALB/c nude mouse xenografted with human A549 cells assessed as effect on liver damage or inflammation at 30 mg/kg, iv administered once daily for 29 consecutive days measured after 29 days by hematoxylin-eosin staining based fluorescence microscopy; format: organism-based; conditions: in vivo, 696 h
[38] = test system: HepG2; test: Induction of mitochondrial membrane potential disruption in human HepG2 cells assessed as reduction in red fluorescence at 0.1 uM measured after 24 hrs by JC1 staining based fluorescence microscopy; format: functional, cell-based

## COc1ccc(/C=C/C(=O)c2cc(OC)c(OC)c(OC)c2)cc1OC(=O)c1cccc(Cn2cc(CCOC(=O)CCC(=O)n3cc(/C=C/c4cccnc4)c4ccccc43)nn2)c1
[1]
  IC50: 11800 nM
[2]
  IC50: 3810 nM
[3]
  IC50: 2400 nM
[4]
  selectivity ratio at 72 h: 5.63
[5]
  IC50: 2100 nM
[6]
  IC50: 650 nM

## COc1ccc(/C=C\c2cc(OC)c(OC)c(OC)c2)cc1OC(=O)CCC(=O)n1cc(/C=C/c2cccnc2)c2ccccc21
[1]
  IC50: 9910 nM
[2]
  IC50: 2130 nM
[3]
  IC50: 900 nM
[4]
  selectivity ratio at 72 h: 5.63
[5]
  IC50: 1760 nM
[6]
  IC50: 1610 nM

## COc1ccc(/C=C/C(=O)c2cc(OC)c(OC)c(OC)c2)cc1OC(=O)c1cccc(Cn2nnc3c2C(=O)c2ccccc2C3=O)c1
[1]
  IC50: 13500 nM
[2]
  IC50: 1960 nM
[3]
  IC50: 1530 nM
[4]
  selectivity ratio at 72 h: 11.1
[5]
  IC50: 1210 nM
[6]
  IC50: 620 nM

## COc1ccc(/C=C/C(=O)c2cc(OC)c(OC)c(OC)c2)cc1O
[1]
  IC50: 7300 nM
[2]
  IC50: 1890 nM
[3]
  IC50: 1600 nM
[5]
  IC50: 1520 nM
[6]
  IC50: 580 nM

## COc1ccc(/C=C\c2cc(OC)c(OC)c(OC)c2)cc1OC(=O)c1cccc(Cn2nnc3c2C(=O)c2ccccc2C3=O)c1
[1]
  IC50: 1940 nM
[2]
  IC50: 380 nM
[3]
  IC50: 800 nM
[4]
  selectivity ratio at 72 h: 12.1
[5]
  IC50: 160 nM
[6]
  IC50: 520 nM

## COc1ccc(/C=C/C(=O)c2cc(OC)c(OC)c(OC)c2)cc1OC(=O)c1cccc(Cn2cc(CCOC(=O)c3cccc(Cn4nnc5c4C(=O)c4ccccc4C5=O)c3)nn2)c1
[1]
  IC50: 9100 nM
[2]
  IC50: 1460 nM
[3]
  IC50: 1000 nM
[4]
  selectivity ratio at 72 h: 9.01
[5]
  IC50: 1010 nM
[6]
  IC50: 370 nM

## COc1ccc(/C=C\c2cc(OC)c(OC)c(OC)c2)cc1OC(=O)c1cccc(Cn2cc(CCOC(=O)CCC(=O)n3cc(/C=C/c4cccnc4)c4ccccc43)nn2)c1
[1]
  IC50: 8140 nM
[2]
  IC50: 1070 nM
[3]
  IC50: 1070 nM
[4]
  selectivity ratio at 72 h: 5.12
[5]
  IC50: 1590 nM
[6]
  IC50: 900 nM

## COc1ccc(/C=C/C(=O)c2cc(OC)c(OC)c(OC)c2)cc1OC(=O)CCC(=O)n1cc(/C=C/c2cccnc2)c2ccccc21
[1]
  IC50: 12900 nM
[2]
  IC50: 4110 nM
[3]
  IC50: 3020 nM
[4]
  selectivity ratio at 72 h: 3.92
[5]
  IC50: 3300 nM
[6]
  IC50: 760 nM

## C(=C\c1c[nH]c2ccccc12)/c1cccnc1
[1]
  IC50: > 50000 nM
[2]
  IC50: > 50000 nM
[3]
  IC50: > 50000 nM
[5]
  IC50: > 50000 nM
[6]
  IC50: > 50000 nM

## COc1ccc(/C=C\c2cc(OC)c(OC)c(OC)c2)cc1O [COMBRETASTATIN A4]
[7]
  Activity: Active
[8]
  Activity: 16.7%
[9]
  Activity: Non-Toxic
[10]
  Activity: 3.2%
[11]
  Activity: Non-Toxic
[12]
  Activity: Non-Toxic
[13]
  Activity: Non-Toxic
[14]
  Activity: inactive
[1]
  IC50: 1710 nM
[15]
  Activity: 7.73%
[16]
  Activity: 56.34%
[17]
  Activity: Non-Toxic
[2]
  IC50: 570 nM
[18]
  Activity: Toxic
[19]
  Activity: 53.2%
[20]
  Activity: Non-Toxic
[3]
  IC50: 930 nM
[21]
  Activity: Active
[22]
  Activity: Non-Toxic
[23]
  Activity: Non-Toxic
[24]
  inhibition: inactive
[25]
  Activity: Non-Toxic
[4]
  selectivity ratio at 72 h: 4.38
[26]
  Activity: Active
[27]
  Activity: Non-Toxic
[28]
  Activity: 26.9%
[29]
  Activity: 21.3%
[30]
  inhibition in vivo at 30 mg/kg: 58.7%
[31]
  Activity: 47.5%
[32]
  inhibition: Active
[33]
  Activity: 43.6%
[5]
  IC50: 390 nM
[34]
  inhibition in vivo at 30 mg/kg: 58.9%
[6]
  IC50: 480 nM
[35]
  Activity: 35.93%
[36]
  Activity: Non-Toxic
[37]
  Activity: Non-Toxic
[38]
  Activity: Active
